Measurements reported in patent publication US20230312481A1, “SUBSTITUTED (PHTHALAZIN-1-YLMETHYL)UREAS, SUBSTITUTED N-(PHTHALAZIN-1-YLMETHYL)AMIDES, AND ANALOGUES THEREOF” (priority 2020, published 2023).
Like-named read-outs stand apart in the source and are kept apart here.

System: HBV rcDNA in HepDE19 cells
Test: HepDE19 assay with bDNA quantitation of HBV rcDNA
Format: cell-based, hepatitis B virus
Conditions: read-out: DE-19bDNA EC50
Description: HepDE19 Assay With bDNA Quantitation of HBV rcDNA
HepDE19 (50,000 cells/well) were plated in 96-well collagen-coated tissue-culture treated microtiter plates in DMEM/F12 medium supplemented with 10% fetal bovine serum, 1% penicillin-streptomycin and 1 µg/mL tetracycline and incubated in a humidified incubator at 37° C. and 5% CO2 overnight. Next day, the cells were switched to fresh medium without tetracycline and incubated for 4 hours at 37° C. and 5% CO2. […] The final DMSO concentration in the assay was 0.5%. The plates were incubated for 7 days in a humidified incubator at 37° C. and 5% CO2. Following a 7 day-incubation, the level of rcDNA present in the inhibitor-treated wells was measured using a Quantigene 2.0 bDNA assay kit (Affymetrix, Santa Clara, CA) with HBV specific custom probe set and manufacturers instructions. Concurrently, the effect of compounds on cell viability was assessed using replicate plates, plated at a density of 5,000 cells/well and incubated for 4 days, to determine the ATP content as a measure of cell viability using the cell-titer glo reagent (CTG; Promega Corporation, Madison, WI) as per manufacturer’s instructions.
Representative compounds of the disclosure were tested for their abilities to inhibit formation of relaxed circular DNA (rcDNA) in a HepDE19 assay, as described elsewhere herein.

[1] = HepDE19 cells, 7 day incubation, rcDNA measured by Quantigene 2.0 bDNA assay, top concentration 25 µM
[2] = Hepatitis B virus, HepDE19, 168 h, HepDE19 cells, 7 day incubation, rcDNA measured by Quantigene 2.0 bDNA assay, top concentration 25 µM
[3] = Hepatitis B virus, HepDE19, 168 h

SMILES	EC50 [1]	EC50 [2]	also measured
CC(c1n[nH]c(=O)c2cc(F)c(F)cc12)N(C)C(=O)c1ccc2ncsc2c1 (single isomer, unassigned) [Compound 87, N-(1-(6,7-difluoro-4-oxo-3,4-dihydrophthalazin-l-yl)ethyl)-N-methylbenzo[d]thiazole-6-carboxamide]	5570 nM	–	–
CC(c1n[nH]c(=O)c2cc(F)c(F)cc12)N(C)C(=O)c1cc2c(C(F)F)cc(F)cc2[nH]1 (single isomer, unassigned) [Compound 96, N-(1-(6,7-difluoro-4-oxo-3,4-dihydrophthalazin-1-yl)ethyl)-4-(difluoromethyl)-6-fluoro-N-methyl-1H-indole-2-carboxamide]	2520 nM	–	–
CC(c1n[nH]c(=O)c2cc(F)c(F)cc12)N(C)C(=O)c1ccc(F)c(C(F)F)c1 (racemic) [Compound 72, N-(1-(6,7-difluoro-4-oxo-3,4-dihydrophthalazin-1-yl)ethyl)-3-(difluoromethyl)-4-fluoro-N-methylbenzamide]	–	340 nM	–
CC(c1n[nH]c(=O)c2cc(F)c(F)cc12)N(C)C(=O)c1cc2ccccn2c1 (racemic) [Compound 59, N-(1-(6,7-difluoro-4-oxo-3,4-dihydrophthalazin-1-yl)ethyl)-N-methylindolizine-2-carboxamide]	–	–	EC50 [3]: 130 nM
CC(c1n[nH]c(=O)c2cc(F)c(F)cc12)N(C)C(=O)c1ccc(Cl)cc1 (racemic) [Compound 69, 4-chloro-N-(1-(6,7-difluoro-4-oxo-3,4-dihydrophthalazin-1-yl)ethyl)-N-methylbenzamide]	–	–	EC50 [3]: 200 nM
CC(C)CN(C(=O)Nc1ccc(F)cc1)C(C)c1nn(C)c(=O)c2cc(F)c(F)cc12 (racemic) [Compound 24, 1-(1-(6,7-difluoro-3-methyl-4-oxo-3,4-dihydrophthalazin-1-yl)ethyl)-3-(4-fluorophenyl)-1-isobutylurea]	–	7 nM	–
CC(c1n[nH]c(=O)c2cc(F)c(F)cc12)N(C)C(=O)c1ccc2cn[nH]c2c1 (single isomer, unassigned) [Compound 112, N-(1-(6,7-difluoro-4-oxo-3,4-dihydrophthalazin-1-yl)ethyl)-N-methyl-1H-indazole-6-carboxamide]	> 25000 nM	–	–
CC(c1n[nH]c(=O)c2cc(F)ccc12)N(C)C(=O)Nc1ccc(F)c(Cl)c1 (racemic) [Compound 17, 3-(3-chloro-4-fluorophenyl)-1-(1-(6-fluoro-4-oxo-3,4-dihydrophthalazin-1-yl)ethyl)-1-methylurea]	–	81 nM	–
CC(c1nn(C)c(=O)c2cc(F)c(F)cc12)N(CCS(=O)(=O)NC(=O)Nc1ccc(F)c(Cl)c1)C(=O)Nc1ccc(F)c(Cl)c1 (racemic) [Compound 30, 3-(3-chloro-4-fluoro-phenyl)-1-[2-[(3-chloro-4-fluorophenyl)carbamoylsulfamoyl]ethyl]-1-[1-(6,7-difluoro-3-methyl-4-oxo-phthalazin-1-yl)ethyl]urea]	–	58 nM	–
C[C@@H](c1n[nH]c(=O)c2cc(F)c(F)cc12)N(C)C(=O)Nc1ccc(F)c(Cl)c1 [Compound 31, 3-(3-chloro-4-fluorophenyl)-1-(1-(6,7-difluoro-4-oxo-3,4-dihydrophthalazin-1-yl)ethyl)-1-methylurea]	–	1800 nM	–
CC(c1n[nH]c(=O)c2cc(F)c(F)cc12)N(C)C(=O)c1cc2c(C(F)F)cccn2c1 (single isomer, unassigned) [Compound 99, N-(1-(6,7-difluoro-4-oxo-3,4-dihydrophthalazin-1-yl)ethyl)-8-(difluoromethyl)-N-methylindolizine-2-carboxamide]	10 nM	–	–
CC(c1n[nH]c(=O)c2cc(F)c(F)cc12)N(C)C(=O)c1cc2sccc2[nH]1 (single isomer, unassigned) [Compound 80, N-(1-(6,7-difluoro-4-oxo-3,4-dihydrophthalazin-1-yl)ethyl)-N-methyl-4H-thieno[3,2-b]pyrrole-5-carboxamide]	14100 nM	–	–
